Source: ChEMBL document CHEMBL1833947, “Synthesis and biological investigation of potential atypical antipsychotics with a tropane core. Part 1” (Eur J Med Chem, 2011)
pKi: −log10 of the molar value. The source made the active and inactive calls. The calls are words filed in the database; no cut-off is given here.

Columns and labels:
Mus musculus [1] = assay: Antidepressant-like activity in Swiss albino mouse assessed as immobilization time at 20 mg/kg, ip after 30 mins by forced swim test; assay type: functional, organism-based; design: dose 20 mg/kg
Rattus norvegicus [2] = assay: Antipsychotic activity in 8-OH-DPAT-stimulated rat assessed as lower lip retractions at 10 mg/kg, iv administered 45 mins before 8-OH-DPAT challenge measured after 15 to 45 mins (reference value: 2.9 retractions); assay type: functional
Mus musculus [3] = organism: Mus musculus; details: Swiss albino, 20 mg/kg
Description: Hypothermic effect in Swiss albino mouse assessed as change in body temperature at 20 mg/kg, ip measured after 60 mins

Mus musculus [4] = assay: Anxiolytic-like activity in mouse assessed as number of punished crossing at 10 mg/kg, ip after 30 mins by four-plate test (reference value: 554 +/- 46 crossings); assay type: functional; details: route intraperitoneal
Mus musculus [5] = organism: Mus musculus; details: Swiss albino, 20 mg/kg; remark: listed apart in the source
Description: Hypothermic effect in Swiss albino mouse assessed as change in body temperature at 20 mg/kg, ip measured after 60 mins in presence of 0.1 mg/kg, sc 5-HT1A antagonist WAY 100635

Rattus norvegicus [6] = assay: Induction of 5HT1A receptor in rat assesses as lower lip retractions at 20 mg/kg, iv after 15 mins (reference value: 0.1 +/- 0.1 retractions); assay type: functional
[7] = biological target: T1, 5-hydroxytryptamine receptor 1A (Rattus norvegicus, UniProt P19327); assay: Displacement of [3H]8OH-DPAT from 5HT1A in rat brain cerebral cortex after 15 mins by scintillation counting; assay type: tissue-based
T1 sequence (P19327 whole entry): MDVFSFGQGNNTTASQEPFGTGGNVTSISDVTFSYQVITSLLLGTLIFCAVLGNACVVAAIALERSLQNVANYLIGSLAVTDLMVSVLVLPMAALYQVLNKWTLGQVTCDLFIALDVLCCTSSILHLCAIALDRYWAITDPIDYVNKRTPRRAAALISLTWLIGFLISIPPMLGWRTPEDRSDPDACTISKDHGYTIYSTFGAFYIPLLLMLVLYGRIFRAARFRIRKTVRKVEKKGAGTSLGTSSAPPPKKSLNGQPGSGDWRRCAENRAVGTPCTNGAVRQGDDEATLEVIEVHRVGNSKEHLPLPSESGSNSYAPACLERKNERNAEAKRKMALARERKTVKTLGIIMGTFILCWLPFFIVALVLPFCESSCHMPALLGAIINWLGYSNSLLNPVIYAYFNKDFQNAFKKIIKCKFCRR

Mus musculus [8] = organism: Mus musculus; details: Swiss albino, 5 mg/kg
Description: Hypothermic effect in Swiss albino mouse assessed as change in body temperature at 5 mg/kg, ip measured after 30 mins

[9] = biological target: 5-hydroxytryptamine receptor 2A (Rattus norvegicus, UniProt P14842); assay: Displacement of [3H]ketanserin from 5HT2A in rat brain cerebral cortex after 20 mins by scintillation counting; assay type: tissue-based
Mus musculus [10] = organism: Mus musculus; details: Swiss albino, 20 mg/kg; remark: listed apart in the source
Description: Hypothermic effect in Swiss albino mouse assessed as change in body temperature at 20 mg/kg, ip measured after 30 mins

Mus musculus [11] = organism: Mus musculus; details: Swiss albino, 5 mg/kg; remark: listed apart in the source
Description: Hypothermic effect in Swiss albino mouse assessed as change in body temperature at 5 mg/kg, ip measured after 120 mins

Mus musculus [12] = organism: Mus musculus; details: Swiss albino, 5 mg/kg; remark: listed apart in the source
Description: Hypothermic effect in Swiss albino mouse assessed as change in body temperature at 5 mg/kg, ip measured after 90 mins

Mus musculus [13] = organism: Mus musculus; details: Swiss albino, 5 mg/kg; remark: listed apart in the source
Description: Hypothermic effect in Swiss albino mouse assessed as change in body temperature at 5 mg/kg, ip measured after 60 mins

Mus musculus [14] = organism: Mus musculus; details: Swiss albino, 20 mg/kg; remark: listed apart in the source
Description: Hypothermic effect in Swiss albino mouse assessed as change in body temperature at 20 mg/kg, ip measured after 30 mins in presence of 0.1 mg/kg, sc 5-HT1A antagonist WAY 100635

Rattus norvegicus [15] = assay: Antipsychotic activity in 8-OH-DPAT-stimulated rat assessed as lower lip retractions at 20 mg/kg, iv administered 45 mins before 8-OH-DPAT challenge measured after 15 to 45 mins (reference value: 2.9 retractions); assay type: functional
Mus musculus [16] = assay: Anxiolytic-like activity in mouse assessed as number of punished crossing at 10 mg/kg, ip after 6 mins by four-plate test (reference value: 554 +/- 46 crossings); assay type: functional; details: route intraperitoneal
Mus musculus [17] = organism: Mus musculus; details: Swiss albino, 20 mg/kg; remark: listed apart in the source
Description: Hypothermic effect in Swiss albino mouse assessed as change in body temperature at 20 mg/kg, ip measured after 90 mins

Rattus norvegicus [18] = assay: Induction of 5HT1A receptor in rat assesses as lower lip retractions at 10 mg/kg, iv after 15 mins (reference value: 0.1 +/- 0.1 retractions); assay type: functional
Mus musculus [19] = organism: Mus musculus; details: Swiss albino, 20 mg/kg; remark: listed apart in the source
Description: Hypothermic effect in Swiss albino mouse assessed as change in body temperature at 20 mg/kg, ip measured after 120 mins

D(2) dopamine receptor = D(2) dopamine receptor (Rattus norvegicus, UniProt P61169); assay: Displacement of [3H]spiperone from dopamine D2 receptor in rat striatum tissue after 20 mins by scintillation counting; assay type: tissue-based
Mus musculus [20] = assay: Antidepressant-like activity in Swiss albino mouse assessed as immobilization time at 10 mg/kg, ip after 30 mins by forced swim test; assay type: functional
Mus musculus [21] = assay: Antipsychotic activity in mouse assessed as reversal of apomorphine-induced mesh climbing response at 10 mg/kg, ip administered 10 mins prior to apomorphine challenge measured after 40 mins; assay type: functional, organism-based; design: dose 10 mg/kg
Mus musculus [22] = organism: Mus musculus; details: Swiss albino, 10 mg/kg
Description: Hypothermic effect in Swiss albino mouse assessed as change in body temperature at 10 mg/kg, ip measured after 120 mins

Mus musculus [23] = assay: Antipsychotic activity in mouse assessed as reversal of DOI-induced head twitches at 5 mg/kg, ip administered 30 mins before DOI challenge; assay type: functional; details: route intraperitoneal
Mus musculus [24] = assay: Antipsychotic activity in mouse assessed as reversal of DOI-induced head twitches at 20 mg/kg, ip administered 30 mins before DOI challenge; assay type: functional; details: route intraperitoneal
Mus musculus [25] = assay: Antipsychotic activity in mouse assessed as reversal of apomorphine-induced mesh climbing response at 10 mg/kg, ip administered 10 mins prior to apomorphine challenge measured after 60 mins; assay type: functional, organism-based; design: dose 10 mg/kg
Mus musculus [26] = organism: Mus musculus; details: Swiss albino, 10 mg/kg; remark: listed apart in the source
Description: Hypothermic effect in Swiss albino mouse assessed as change in body temperature at 10 mg/kg, ip measured after 90 mins

Mus musculus [27] = assay: Antipsychotic activity in mouse assessed as reversal of apomorphine-induced mesh climbing response at 50 mg/kg, ip administered 20 mins prior to apomorphine challenge measured after 120 mins
Mus musculus [28] = assay: Antipsychotic activity in mouse assessed as reversal of DOI-induced head twitches at 10 mg/kg, ip administered 30 mins before DOI challenge; assay type: functional; details: route intraperitoneal
Mus musculus [29] = organism: Mus musculus; details: Swiss albino, 10 mg/kg; remark: listed apart in the source
Description: Hypothermic effect in Swiss albino mouse assessed as change in body temperature at 10 mg/kg, ip measured after 60 mins

Mus musculus [30] = organism: Mus musculus; details: Swiss albino, 10 mg/kg; remark: listed apart in the source
Description: Hypothermic effect in Swiss albino mouse assessed as change in body temperature at 10 mg/kg, ip measured after 30 mins

Mus musculus [31] = assay: Antipsychotic activity in mouse assessed as reversal of apomorphine-induced mesh climbing response at 10 mg/kg, ip administered 10 mins prior to apomorphine challenge measured after 50 mins; assay type: functional, organism-based; design: dose 10 mg/kg
Mus musculus [32] = assay: Antidepressant-like activity in Swiss albino mouse assessed as immobilization time at 2 mg/kg, sc after 30 mins by forced swim test; assay type: functional; details: route subcutaneous
Mus musculus [33] = assay: Antidepressant-like activity in Swiss albino mouse assessed as immobilization time at 1 mg/kg, sc after 30 mins by forced swim test; assay type: functional; details: route subcutaneous

Chain of D(2) dopamine receptor (P61169 whole entry): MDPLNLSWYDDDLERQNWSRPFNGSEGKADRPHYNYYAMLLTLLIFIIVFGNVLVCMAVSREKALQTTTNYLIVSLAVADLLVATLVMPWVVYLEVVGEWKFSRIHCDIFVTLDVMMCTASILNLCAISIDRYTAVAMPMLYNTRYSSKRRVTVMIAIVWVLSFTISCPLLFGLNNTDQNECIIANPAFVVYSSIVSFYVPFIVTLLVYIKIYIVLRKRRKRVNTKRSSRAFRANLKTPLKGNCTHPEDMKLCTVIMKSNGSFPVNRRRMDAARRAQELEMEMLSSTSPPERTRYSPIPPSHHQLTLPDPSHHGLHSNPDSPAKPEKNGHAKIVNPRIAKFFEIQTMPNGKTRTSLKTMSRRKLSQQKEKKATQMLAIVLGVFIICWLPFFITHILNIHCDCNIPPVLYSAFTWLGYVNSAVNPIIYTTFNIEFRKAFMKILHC
Chain of 5-hydroxytryptamine receptor 2A (P14842 whole entry): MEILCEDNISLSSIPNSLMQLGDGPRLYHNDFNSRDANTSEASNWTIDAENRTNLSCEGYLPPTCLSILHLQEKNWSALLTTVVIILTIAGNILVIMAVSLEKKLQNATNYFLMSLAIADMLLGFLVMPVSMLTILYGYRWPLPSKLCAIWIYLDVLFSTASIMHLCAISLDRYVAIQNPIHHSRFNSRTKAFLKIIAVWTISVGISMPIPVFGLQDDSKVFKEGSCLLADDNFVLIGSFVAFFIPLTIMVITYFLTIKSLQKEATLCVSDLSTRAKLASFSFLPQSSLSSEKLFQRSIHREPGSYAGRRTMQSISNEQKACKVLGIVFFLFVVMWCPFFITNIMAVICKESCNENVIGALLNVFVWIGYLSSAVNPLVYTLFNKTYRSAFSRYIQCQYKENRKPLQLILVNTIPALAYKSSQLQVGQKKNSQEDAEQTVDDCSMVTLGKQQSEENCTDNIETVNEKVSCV

| SMILES | Activity (Mus musculus [1]) | Activity (Rattus norvegicus [2]) | deltaT (Mus musculus [3]) [°C] | deltaT (Mus musculus [5]) [°C] | Activity (Rattus norvegicus [6]) | pKi [7] | deltaT (Mus musculus [8]) [°C] | pKi [9] | deltaT (Mus musculus [10]) [°C] | deltaT (Mus musculus [11]) [°C] | deltaT (Mus musculus [12]) [°C] | deltaT (Mus musculus [13]) [°C] | deltaT (Mus musculus [14]) [°C] | Activity (Rattus norvegicus [15]) | deltaT (Mus musculus [17]) [°C] | Activity (Rattus norvegicus [18]) | deltaT (Mus musculus [19]) [°C] | pKi (D(2) dopamine receptor) | further results |
| --- | --- | --- | --- | --- | --- | --- | --- | --- | --- | --- | --- | --- | --- | --- | --- | --- | --- | --- | --- |
| O=C(N[C@H]1CC2CC[C@H](C1)N2Cc1ccco1)c1ccc2ccccc2c1 (single isomer, unassigned) | inactive | 2.7 | -0.8 | -1.1 | 0.6 | 5.55 | -0.2 | 7.62 | -1.3 | 0.1 | 0.1 | 0.1 | -1.2 | 2 | -0.4 | 0.1 | -0.2 | 6.69 | Activity (Mus musculus [4]): 566; Activity (Mus musculus [16]): 233; Activity (Mus musculus [20]; route intraperitoneal): 9% |
| COc1cc(N)c(Cl)cc1C(=O)N[C@H]1CC2CC[C@H](C1)N2Cc1ccco1 (single isomer, unassigned) | inactive | 2.6 | -1 | -0.8 | 0.1 | 5.60 | 0 | 7.78 | -1.8 | 0.1 | 0.1 | -0.3 | -1.3 | 2.7 | -1 | 0.2 | -0.9 | 7.74 | Activity (Mus musculus [21]): Active; deltaT (Mus musculus [22]): -0.1 °C; Activity (Mus musculus [23]): 68%; Activity (Mus musculus [24]): 100%; Activity (Mus musculus [25]): Active; deltaT (Mus musculus [26]): -0.1 °C; Activity (Mus musculus [27]): Active; Activity (Mus musculus [28]): 97%; deltaT (Mus musculus [29]): -0.2 °C; deltaT (Mus musculus [30]): -0.3 °C; Activity (Mus musculus [31]): Active; Activity (Mus musculus [20]): inactive |
| Br.CCCN(CCC)C1CCc2cccc(O)c2C1 (stereo not drawn) |  |  |  |  |  |  |  |  |  |  |  |  |  |  |  |  |  |  | Activity (Mus musculus [32]): 57%; Activity (Mus musculus [33]): 45% |
